According to patent US9913843B2, “Protein kinase C inhibitors and uses thereof” (Rigel Pharmaceuticals, Inc., priority 2012, dated 2018):
pIC50: −log10 of the molar value. Like-named read-outs stand apart in the source and are kept apart here.

Tested on: PKC mediated IL-2 production in human primary T cells
Assay: IL-2 ELISA, human primary T cell, anti CD3+CD28+ (whole cell functional assay for PKC mediated IL-2 production)
Format: cell-based
Method: Human primary T cells were prepared as follows. Fresh PBMC's from All Cells (Cat # PB002) were re-suspended in RPMI (RPMI-1640 with L-Glutamine; Mediatech, Inc., Herndon Va., cat. #10-040-CM) with 10% FBS and seeded into flasks and incubated at 37° C. for 2 hours to allow the monocytes to adhere. The non-adherent cells were then centrifuged and re-suspended in RPMI medium containing 40 U/ml IL2 and seeded into a flask pre-coated with 1 μg/ml aCD3 and 5 ug/ml aCD28 (Anti-Human CD3, BD Pharmingen Catalog #555336, Anti-Human CD28, Beckman Coulter Catalog #IM1376). The cells were stimulated for 3-4 days, then transferred to a fresh flask and maintained in RPMI (RPMI-1640 with L-Glutamine; Mediatech, Inc., Herndon Va., cat. #10-040-CM) with 10% FBS and 40 U/ml IL-2.
Human primary T cells (100,000 cells per well) were pre-incubated with or without test compound in RPMI-1640 with L-Glutamine and 10% FBS for 1 hour at 37° C. Cells were then stimulated by transferring them to round-bottom 96-well plates pre-coated with 1 μg/ml aCD3 and 5 μg/ml aCD28. For counter assay, cells were instead stimulated by adding 8× stock solutions of PMA and ionomycin in RPMI-1640 with L-Glutamine and 10% FBS (for final concentrations of 0.5 ng/ml PMA and 0.1 μM ionomycin, both from Calbiochem). Cells were incubated at 37° C. for 24 hours before 100 μL supernatants were harvested for quantification of IL-2 by ELISA using Human IL-2 Duoset ELISA Kit from R and D Systems, Cat. # DY202E.
Compounds 1-156 were tested in a whole cell functional assay for PKC mediated IL-2 production as follows. Human primary T cell isolation and culture: Human primary T cells were prepared as follows. Whole blood was obtained from a healthy volunteer, mixed 1:1 with PBS, layered on to Ficoll Hypaque (Amersham Pharmacia Biotech, Piscataway, N.J., Catalog #17-1440-03) in 2:1 blood/PBS:ficoll ratio and centrifuged for 30 minutes at 4° C. at 1750 rpm. The cells at the serum: ficoll interface were recovered and washed twice with 5 volumes of PBS. These freshly isolated human peripheral blood mononuclear cells were cultured in Yssel's medium containing 40 U/ml IL2 in a flask pre-coated with 1 μg/ml aCD3 and 5 μg/ml aCD28 (Anti-Human CD3, BD Pharmingen Catalog #555336, Anti-Human CD28, Beckman Coulter Catalog #IM1376). The cells were stimulated for 3-4 days, then transferred to a fresh flask and maintained in RPMI (RPMI-1640 with L-Glutamine; Mediatech, Inc., Herndon Va., cat. #10-040-CM) with 10% FBS and 40 U/ml IL-2. The primary T-cells were then washed twice with PBS to remove the IL-2.
Primary T cell stimulation and IL2 ELISA: Human primary T cells (100,000 cells per well) were pre-incubated with or without test compound in Yssel's medium for 1 hour at 37° C. Cells were then stimulated by transferring them to round-bottom 96-well plates pre-coated with 1 μg/ml aCD3 and 5 μg/ml αCD28. For counter assay, cells were instead stimulated by adding 8× stock solutions of PMA and ionomycin in Yssels (for final concentrations of 0.5 ng/ml PMA and 0.1 uM ionomycin, both from Calbiochem). Cells were incubated at 37° C. for 24 hours before 100 μL supernatants were harvested for quantification of IL-2 by ELISA using Human IL-2 Duoset ELISA Kit from R and D Systems, Cat. # DY202E.

[1] = 24 h, human primary T cells stimulated with anti-CD3 + anti-CD28, IL-2 by ELISA, read-out: IC50 for blocking IL-2 production
[2] = human primary T cells stimulated with anti-CD3 + anti-CD28, 24 h, IL-2 by ELISA, 8 pt, read-out: IL2 ELISA, Human primary T cell, anti-CD3 + CD28, 8 pt (IC50)

In the case of [2H]C([2H])(O)C([2H])([2H])Oc1cc(F)c(Nc2ncc(C#N)c(NC[C@@H]3CCCN4CCCC[C@H]34)n2)cc1-n1nnn(C)c1=O [Compound 137, 2-((2-fluoro-4-(2-hydroxyethoxy-1,1,2,2-d4)-5-(4-methyl-5-oxo-4,5-dihydro-1H-tetrazol-1-yl)phenyl)amino)-4-((((1S,9aR)-octahydro-2H-quinolizin-1-yl)methyl)amino)pyrimidine-5-carbonitrile], the pIC50 [1] was > 4.52.
With COc1ccc(Nc2ncc(C(N)=O)c(NC[C@@H]3CCCN4CCCC[C@H]34)n2)cc1-n1nnnc1C [Compound 125, 4-(((1S,9aR)-octahydro-1H-quinolizin-1-yl)methylamino)-2-(4-methoxy-3-(5-methyl-1H-tetrazol-1-yl)phenylamino)pyrimidine-5-carboxamide] the pIC50 [1] was > 4.52 and the pIC50 [2] was 5.75.
With Cc1cnc(Nc2ccc3oc(=O)[nH]c3c2)nc1NC[C@@H]1CCCN2CCCC[C@H]12 [Compound 71, 5-(4-(((1S,9aR)-octahydro-1H-quinolizin-1-yl)methylamino)-5-methylpyrimidin-2-ylamino)benzo[d]oxazol-2(3H)-one] the pIC50 [1] was > 4.52 and the pIC50 [2] was 5.43.
For N#Cc1cc(Nc2nccc(NC[C@@H]3CCCN4CCCC[C@H]34)n2)c(F)cc1C1CC1 [Compound 56, 5-(4-(((1S,9aR)-octahydro-1H-quinolizin-1-yl)methylamino)pyrimidin-2-ylamino)-2-cyclopropyl-4-fluorobenzonitrile], the pIC50 [1] was > 4.52 and the pIC50 [2] was 5.42.
In the case of CN(C)c1cnc(Nc2cccc(C#N)c2)nc1NC[C@@H]1CCCN2CCCC[C@H]12 [Compound 92, 3-(4-(((1S,9aR)-octahydro-1H-quinolizin-1-yl)methylamino)-5-(dimethylamino)pyrimidin-2-ylamino)benzonitrile], the pIC50 [1] was > 4.52 and the pIC50 [2] was 5.02.
COc1cnc(Nc2cc(C#N)c(C3CC3)cc2F)nc1NC[C@@H]1CCCN2CCCC[C@H]12 [Compound 82, 5-(4-(((1S,9aR)-octahydro-1H-quinolizin-1-yl)methylamino)-5-methoxypyrimidin-2-ylamino)-2-cyclopropyl-4-fluorobenzonitrile] was tested, and the pIC50 [1] was > 4.52 and the pIC50 [2] was 5.88.
In the case of N#Cc1cc(Nc2ncc(F)c(NC[C@@H]3CCCN4CCCC[C@H]34)n2)ccc1C1CC1 [Compound 1, 5-(4-(((1S,9aR)-octahydro-1H-quinolizin-1-yl)methylamino)-5-fluoropyrimidin-2-ylamino)-2-cyclopropylbenzonitrile], the pIC50 [1] was > 4.52 and the pIC50 [2] was 6.97.
With COc1ccc(Nc2ncc(F)c(NC[C@@H]3CCCN4CCCC[C@H]34)n2)cc1-c1cnco1 [Compound 22, 5-fluoro-N4-(((1S,9aR)-octahydro-1H-quinolizin-1-yl)methyl)-N2-(4-methoxy-3-(oxazol-5-yl)phenyl)pyrimidine-2,4-diamine] the pIC50 [1] was > 4.52 and the pIC50 [2] was 6.16.
OCCOc1ccc(Nc2ncc(F)c(NC[C@@H]3CCCN4CCCC[C@H]34)n2)cc1-n1cnnn1 [Compound 138, 2-(4-((5-fluoro-4-((((1S,9aR)-octahydro-2H-quinolizin-1-yl)methyl)amino)pyrimidin-2-yl)amino)-2-(1H-tetrazol-1-yl)phenoxy)ethan-1-ol] was tested, and the pIC50 [1] was > 4.52 and the pIC50 [2] was 7.31.
In the case of Cc1nnnn1-c1ccc(F)c(Nc2ncc(C(N)=O)c(NC[C@@H]3CCCN4CCCC[C@H]34)n2)c1 [Compound 127, 4-(((1S,9aR)-octahydro-1H-quinolizin-1-yl)methylamino)-2-(2-fluoro-5-(5-methyl-1H-tetrazol-1-yl)phenylamino)pyrimidine-5-carboxamide], the pIC50 [1] was > 4.52 and the pIC50 [2] was 6.08.
In the case of COc1cnc(Nc2cc(-n3nnnc3C)ccc2F)nc1NC[C@@H]1CCCN2CCCC[C@H]12 [Compound 76, N2-(2-fluoro-5-(5-methyl-1H-tetrazol-1-yl)phenyl)-N4-(((1S,9aR)-octahydro-1H-quinolizin-1-yl)methyl)-5-methoxypyrimidine-2,4-diamine], the pIC50 [1] was > 4.52 and the pIC50 [2] was 5.19.
With COc1cc(Nc2ncc(C)c(NC[C@@H]3CCCN4CCCC[C@H]34)n2)cc(-n2nnnc2C)c1 [Compound 65, N4-(((1S,9aR)-octahydro-1H-quinolizin-1-yl)methyl)-N2-(3-methoxy-5-(5-methyl-1H-tetrazol-1-yl)phenyl)-5-methylpyrimidine-2,4-diamine] the pIC50 [1] was > 4.52 and the pIC50 [2] was 7.14.
Cc1ccc(Nc2ncc(F)c(NC[C@@H]3CCCN4CCCC[C@H]34)n2)cc1-n1cnnn1 [Compound 4, 5-fluoro-N4-(((1S,9aR)-octahydro-1H-quinolizin-1-yl)methyl)-N2-(4-methyl-3-(1H-tetrazol-1-yl)phenyl)pyrimidine-2,4-diamine] was tested, and the pIC50 [1] was > 4.52 and the pIC50 [2] was 6.85.
With Cn1nnn(-c2cc(Nc3ncc(Cl)c(NC[C@@H]4CCCN5CCCC[C@H]45)n3)c(F)cc2OC(C)(C)CO)c1=O [Compound 153, 1-(5-((5-chloro-4-((((1S,9aR)-octahydro-2H-quinolizin-1-yl)methyl)amino)pyrimidin-2-yl)amino)-4-fluoro-2-((1-hydroxy-2-methylpropan-2-yl)oxy)phenyl)-4-methyl-1,4-dihydro-5H-tetrazol-5-one] the pIC50 [1] was > 4.52 and the pIC50 [2] was 6.08.
In the case of N#Cc1cc(Nc2ncc(C(F)(F)F)c(NC[C@@H]3CCCN4CCCC[C@H]34)n2)c(F)cc1C1CC1 [Compound 110, 5-(4-(((1S,9aR)-octahydro-1H-quinolizin-1-yl)methylamino)-5-(trifluoromethyl)pyrimidin-2-ylamino)-2-cyclopropyl-4-fluorobenzonitrile], the pIC50 [1] was > 4.52 and the pIC50 [2] was 4.97.
Fc1cc(C2CC2)c(-n2cnnn2)cc1Nc1ncc(C(F)(F)F)c(NC[C@@H]2CCCN3CCCC[C@H]23)n1 [Compound 100, N2-(4-cyclopropyl-2-fluoro-5-(1H-tetrazol-1-yl)phenyl)-5-(trifluoromethyl)-N4-(((1S,9aR)-octahydro-1H-quinolizin-1-yl)methyl)pyrimidine-2,4-diamine] was tested, and the pIC50 [1] was > 4.52 and the pIC50 [2] was 5.38.
With COc1cnc(Nc2cc(-n3nnn(C)c3=O)c(C3CC3)cc2F)nc1NC[C@@H]1CCCN2CCCC[C@H]12 [Compound 74, 1-(5-(4-(((1S,9aR)-octahydro-1H-quinolizin-1-yl)methylamino)-5-methoxypyrimidin-2-ylamino)-2-cyclopropyl-4-fluorophenyl)-4-methyl-1H-tetrazol-5(4H)-one] the pIC50 [1] was > 4.52 and the pIC50 [2] was 5.66.
COc1ccc(Nc2ncc(F)c(NC[C@@H]3CCCN4CCCC[C@H]34)n2)cc1-n1nnnc1C [Compound 6, 5-fluoro-N4-(((1S,9aR)-octahydro-1H-quinolizin-1-yl)methyl)-N2-(4-methoxy-3-(5-methyl-1H-tetrazol-1-yl)phenyl)pyrimidine-2,4-diamine] was tested, and the pIC50 [1] was > 4.52 and the pIC50 [2] was 7.05.
Cc1nnnn1-c1cc(Nc2ncc(C(N)=O)c(NC[C@@H]3CCCN4CCCC[C@H]34)n2)ccc1F [Compound 126, 4-(((1S,9aR)-octahydro-1H-quinolizin-1-yl)methylamino)-2-(4-fluoro-3-(5-methyl-1H-tetrazol-1-yl)phenylamino)pyrimidine-5-carboxamide] was tested, and the pIC50 [1] was > 4.52 and the pIC50 [2] was 5.80.
For Cc1ccc(Nc2ncc(N(C)C)c(NC[C@@H]3CCCN4CCCC[C@H]34)n2)cc1-n1cnnn1 [Compound 86, N4-(((1S,9aR)-octahydro-1H-quinolizin-1-yl)methyl)-N5,N5-dimethyl-N2-(4-methyl-3-(1H-tetrazol-1-yl)phenyl)pyrimidine-2,4,5-triamine], the pIC50 [1] was > 4.52 and the pIC50 [2] was 4.96.
